Assay results: patent publication US10463754B2, “Process for decontaminating or sterilizing an article” (priority 2014, dated 2019)
Where two headings read alike, the source gives them in different places.

System: spores of Bacillus subtilis
Type: cell-based
Description: The efficacy of the inventive process is assessed using a time kill suspension test method and spores of Bacillus subtilis.
Peracetic acid (PAA) and hydrogen peroxide (H2O2) are prepared as concentrated stocks (3× concentrate). Each test contains 100 μl of the PAA concentrate and 100 μl of the H2O2 concentrate. Controls containing only PAA or H2O2 are also prepared. These contain 100 μl of either the PAA concentrate or H2O2 concentrate and 100 μl of de-ionized water. To each test, 100 μl of spores are added while starting the timer concurrently. The samples are mixed thoroughly. The temperature of the samples is room temperature. At the appropriate contact times, 10 μl of the appropriate test sample are placed into 90 μl of the appropriate neutralizing solution, mixed thoroughly and incubated for at least 10 minutes. Ten fold serial dilutions are prepared through 10^−6 and plated using the drop counting method. The plates are then incubated aerobically at 37° C. for 1-2 days. Following incubation, colony forming units (CFU) are counted using standard plate count techniques and converted to log 10 values for analysis.

Row | SMILES | Time (min) to achieve 4 log reduction (H2O2 0.10% by weight, PAA 0.00% (H2O2 alone), extrapolated from experimental data) [min] | Time (min) to achieve 4 log reduction (H2O2 0.20% by weight, PAA 0.00% (H2O2 alone), extrapolated from experimental data) [min] | Time (min) to achieve 4 log reduction (H2O2 0.40% by weight, PAA 0.00% (H2O2 alone), extrapolated from experimental data) [min] | Time (min) to achieve 4 log reduction (H2O2 0.80% by weight, PAA 0.00% (H2O2 alone)) [min] | Time (min) to achieve 4 log reduction (H2O2 1.60% by weight, PAA 0.00% (H2O2 alone)) [min] | Time (min) to achieve 4 log reduction (H2O2 3.20% by weight, PAA 0.00% (H2O2 alone)) [min] | Time (min) to achieve 4 log reduction (H2O2 6.40% by weight, PAA 0.00% (H2O2 alone), room temperature) [min] | Time (min) to achieve 4 log reduction (PAA 0.005% by weight, H2O2 0.00% (PAA alone), extrapolated from data for PAA 0.08, 0.16 and 0.32%) [min] | Time (min) to achieve 4 log reduction (PAA 0.01% by weight, H2O2 0.00% (PAA alone), extrapolated from data for PAA 0.08, 0.16 and 0.32%) [min] | Time (min) to achieve 4 log reduction (PAA 0.02% by weight, H2O2 0.00% (PAA alone), extrapolated from data for PAA 0.08, 0.16 and 0.32%) [min] | Time (min) to achieve 4 log reduction (PAA 0.04% by weight, H2O2 0.00% (PAA alone), extrapolated from data for PAA 0.08, 0.16 and 0.32%) [min] | Time (min) to achieve 4 log reduction (PAA 0.08% by weight, H2O2 0.00% (PAA alone)) [min] | Time (min) to achieve 4 log reduction (PAA 0.16% by weight, H2O2 0.00% (PAA alone)) [min]
1 | OO [H2O2, hydrogen peroxide] | 2305.13 | 1213.99 | 639.34 | 343.04 | 168.96 | 97.28 | 48.64 | – | – | – | – | – | –
2 | CC(=O)OO [PAA, Peracetic acid] | – | – | – | – | – | – | – | 711625 | 67744.68 | 6449.101 | 613.9362 | 70.40 | 4.64
